Laboratory results published in patent US8629143B2, “Potassium channel modulators” (AbbVie Inc., priority 2009, dated 2014).

Target: T1, KCNQ 2/3 channels (HEK293 cells stably expressing human KCNQ2 and KCNQ3 subunits) (Homo sapiens, UniProt O43525+O43526)
T1 construct: expressed in transfected cells; host or cells: HEK293
Test: KCNQ2/3 channel activation, thallium flux FLIPR assay with BTC-AM dye
Type: cell-based
Conditions: for Emax: HEK293, maximum response relative to the response produced by 10 μM retigabine (set at 100%), read-out: Max. %; for EC50: HEK293 cells expressing human KCNQ2 and KCNQ3, thallium flux, FLIPR
Description: The following example describes the assay that can be used to identify compounds that activate KCNQ 2/3 channels.
HEK293 cells stably expressing human KCNQ2 and KCNQ3 subunits were seeded in 96-well, black-walled, clear-bottomed, poly-D-lysine coated plates (BD Biosciences, Bedford, Mass.) at a density of 1×10^5 cells per well 24 hours before the assay. On the assay day, BTC-AM dye (Invitrogen, Carlsbad, Calif.) was loaded into the cells by replacing the cell culture medium with 55 μL/well of 3 μg/mL dye in DPBS. Dye loading was allowed to proceed for 2 hours at room temperature and then cells were washed twice with 50 μL/well of assay buffer (in mM: 10 HEPES pH 7.3, 5 glucose, 140 Na-gluconate, 2.5 K-gluconate, 3.6 Ca-gluconate, 2 MgSO4, 0.1 Ouabain) to remove unloaded dye. Cells were incubated in 50 μL of assay buffer before loading onto a FLIPR system (Molecular Devices, Sunnyvale, Calif.). Various concentrations of compounds to be assayed were added to the cells in 50 μL of assay buffer and incubated for 4 minutes. The fluorescence signal was initiated by adding 100 μL of assay buffer containing 6 mM TlNO3 and 10 mM K2SO4. Fluors were excited using the 488-nm line of an argon laser and emission was filtered using a 540±30 nm bandpass filter. Fluorescent signals were recorded for 3 minutes. Sums of the responses over basal responses were plotted versus concentrations of test compounds to obtain an EC50 value. The maximum response for each test compound was determined relative to the response produced by 10 μM retigabine. The maximum response of retigabine at 10 μM was set at 100%.

Emax | EC50 | Compound
235% | < 100 nM | O=C(CC12CC3CC(CC(C3)C1)C2)Nn1nc(C2CC2)c2ccccc2c1=O [Example 24, 2-(1-adamantyl)-N-(4-cyclopropyl-1-oxophthalazin-2(1H)-yl)acetamide]
139% | 1000 to 10000 nM | O=C(Cc1cccc(F)c1F)Nn1nc(-c2ccccc2)c2ccccc2c1=O [Example 25, 2-(2,3-difluorophenyl)-N-(1-oxo-4-phenylphthalazin-2(1H)-yl)acetamide]
157% | 100 to 500 nM | O=C(Cc1ccc(F)cc1)Nn1nc(-c2ccccc2)c2ccccc2c1=O [Example 26, 2-(4-fluorophenyl)-N-(1-oxo-4-phenylphthalazin-2(1H)-yl)acetamide]
92% | 500 to 1000 nM | O=C(Cc1cc(F)ccc1F)Nn1nc(-c2ccccc2)c2ccccc2c1=O [Example 27, 2-(2,5-difluorophenyl)-N-(1-oxo-4-phenylphthalazin-2(1H)-yl)acetamide]
121% | 1000 to 10000 nM | Cc1nn(NC(=O)Cc2ccc(Cl)cc2)c(=O)c2ccccc12 [Example 28, 2-(4-chlorophenyl)-N-(4-methyl-1-oxophthalazin-2(1H)-yl)acetamide]
173% | 100 to 500 nM | O=C(CC12CC3CC(CC(C3)C1)C2)Nn1nc(-c2ccccc2)c2ccsc2c1=O [Example 29, 2-(1-adamantyl)-N-(7-oxo-4-phenylthieno[2,3-d]pyridazin-6(7H)-yl)acetamide]
94% | 1000 to 10000 nM | CC1(C)[C@H]2CC[C@@H](CC(=O)Nn3nc(-c4ccccc4)c4ccsc4c3=O)[C@@H]1C2 [Example 30, 2-[(1S,2S,5S)-6,6-dimethylbicyclo[3.1.1]hept-2-yl]-N-(7-oxo-4-phenylthieno[2,3-d]pyridazin-6(7H)-yl)acetamide]
30% | 1000 to 10000 nM | O=C(Cc1ccc(Cl)cc1)Nn1nc(-c2ccccc2)c2ccsc2c1=O [Example 31, 2-(4-chlorophenyl)-N-(7-oxo-4-phenylthieno[2,3-d]pyridazin-6(7H)-yl)acetamide]
46% | 1000 to 10000 nM | O=C(Cc1ccc(F)cc1)Nn1nc(-c2ccccc2)c2ccsc2c1=O [Example 32, 2-(4-fluorophenyl)-N-(7-oxo-4-phenylthieno[2,3-d]pyridazin-6(7H)-yl)acetamide]
140% | 1000 to 10000 nM | O=C(Cc1cc(F)cc(F)c1)Nn1nc(-c2ccccc2)c2ccsc2c1=O [Example 33, 2-(3,5-difluorophenyl)-N-(7-oxo-4-phenylthieno[2,3-d]pyridazin-6(7H)-yl)acetamide]
184% | 100 to 500 nM | CC(C)c1nn(NC(=O)CC23CC4CC(C)(CC(C)(C4)C2)C3)c(=O)c2ccccc12 [Example 34, 2-[3,5-dimethyl-1-adamantyl]-N-(4-isopropyl-1-oxophthalazin-2(1H)-yl)acetamide]
192% | 100 to 500 nM | O=C(Cc1cc(F)cc(F)c1)Nn1nc(-c2ccccc2)c2cc(F)ccc2c1=O [Example 35, 2-(3,5-difluorophenyl)-N-(6-fluoro-1-oxo-4-phenylphthalazin-2(1H)-yl)acetamide]
155% | 100 to 500 nM | O=C(Cc1ccc(Cl)cc1)Nn1nc(-c2ccccc2)c2cc(F)ccc2c1=O [Example 36, 2-(4-chlorophenyl)-N-(6-fluoro-1-oxo-4-phenylphthalazin-2(1H)-yl)acetamide]
179% | < 100 nM | O=C(CC12CC3CC(CC(C3)C1)C2)Nn1nc(-c2ccccc2)c2cc(F)ccc2c1=O [Example 37, 2-(1-adamantyl)-N-(6-fluoro-1-oxo-4-phenylphthalazin-2(1H)-yl)acetamide]
126% | > 10000 nM | Cc1nn(NC(=O)Cc2cc(F)cc(F)c2)c(=O)c2ccccc12 [Example 38, 2-(3,5-difluorophenyl)-N-(4-methyl-1-oxophthalazin-2(1H)-yl)acetamide]
11% | > 10000 nM | O=C(CC1(c2ccc(Cl)cc2)CC1)Nn1nc(C(F)(F)F)c2ccccc2c1=O [Example 39, 2-[1-(4-chlorophenyl)cyclopropyl]-N-[1-oxo-4-(trifluoromethyl)phthalazin-2(1H)-yl]acetamide]
7% | > 10000 nM | O=C(CC1(c2ccc(Cl)cc2)CCC1)Nn1nc(C(F)(F)F)c2ccccc2c1=O [Example 40, 2-[1-(4-chlorophenyl)cyclobutyl]-N-[1-oxo-4-(trifluoromethyl)phthalazin-2(1H)-yl]acetamide]

Emax | EC50 | Compound
103% | 100 to 500 nM | CC(C)(CC(=O)Nn1nc(C(F)(F)F)c2ccccc2c1=O)c1ccc(Cl)cc1 [Example 42, 3-(4-chlorophenyl)-3-methyl-N-[1-oxo-4-(trifluoromethyl)phthalazin-2(1H)-yl]butanamide]
112% | 100 to 500 nM | O=C(CC1CCCC1)Nn1nc(C(F)(F)F)c2ccccc2c1=O [Example 43, 2-cyclopentyl-N-[1-oxo-4-(trifluoromethyl)phthalazin-2(1H)-yl]acetamide]
35% | > 10000 nM | O=C(Nn1nc(C(F)(F)F)c2ccccc2c1=O)C(F)(F)c1ccccc1 [Example 44, 2,2-difluoro-N-[1-oxo-4-(trifluoromethyl)phthalazin-2(1H)-yl]-2-phenylacetamide]
84% | 1000 to 10000 nM | O=C(CC1CCC1)Nn1nc(C(F)(F)F)c2ccccc2c1=O [Example 45, 2-cyclobutyl-N-[1-oxo-4-(trifluoromethyl)phthalazin-2(1H)-yl]acetamide]
7% | > 10000 nM | CN(C)c1ccc(CC(=O)Nn2nc(C(F)(F)F)c3ccccc3c2=O)cc1 [Example 47, 2-[4-(dimethylamino)phenyl]-N-[1-oxo-4-(trifluoromethyl)phthalazin-2(1H)-yl]acetamide]
77% | 1000 to 10000 nM | CC(C)(C)CC(=O)Nn1nc(C(F)(F)F)c2ccccc2c1=O [Example 48, 3,3-dimethyl-N-[1-oxo-4-(trifluoromethyl)phthalazin-2(1H)-yl]butanamide]
3% | > 10000 nM | CS(=O)(=O)c1ccc(CC(=O)Nn2nc(C(F)(F)F)c3ccccc3c2=O)cc1 [Example 49, 2-[4-(methylsulfonyl)phenyl]-N-[1-oxo-4-(trifluoromethyl)phthalazin-2(1H)-yl]acetamide]
116% | > 10000 nM | O=C(CCc1ccccc1)Nn1nc(C(F)(F)F)c2ccccc2c1=O [Example 50, N-[1-oxo-4-(trifluoromethyl)phthalazin-2(1H)-yl]-3-phenylpropanamide]
-2% | > 10000 nM | O=C(CC1(c2ccccc2)CC1)Nn1nc(C(F)(F)F)c2ccccc2c1=O [Example 51, N-[1-oxo-4-(trifluoromethyl)phthalazin-2(1H)-yl]-2-(1-phenylcyclopropyl)acetamide]
116% | 100 to 500 nM | CC(C)(CC(=O)Nn1nc(C(F)(F)F)c2ccccc2c1=O)c1ccccc1 [Example 52, 3-methyl-N-[1-oxo-4-(trifluoromethyl)phthalazin-2(1H)-yl]-3-phenylbutanamide]
61% | 1000 to 10000 nM | O=C(Cc1ccsc1)Nn1nc(C(F)(F)F)c2ccccc2c1=O [Example 53, N-[1-oxo-4-(trifluoromethyl)phthalazin-2(1H)-yl]-2-(3-thienyl)acetamide]
84% | 1000 to 10000 nM | O=C(Cc1cccs1)Nn1nc(C(F)(F)F)c2ccccc2c1=O [Example 54, N-[1-oxo-4-(trifluoromethyl)phthalazin-2(1H)-yl]-2-(2-thienyl)acetamide]
72% | 500 to 1000 nM | O=C(Cc1ccc(Cl)s1)Nn1nc(C(F)(F)F)c2ccccc2c1=O [Example 55, 2-(5-chloro-2-thienyl)-N-[1-oxo-4-(trifluoromethyl)phthalazin-2(1H)-yl]acetamide]
51% | 1000 to 10000 nM | Cc1ccc(CC(=O)Nn2nc(C(F)(F)F)c3ccccc3c2=O)s1 [Example 56, 2-(5-methyl-2-thienyl)-N-[1-oxo-4-(trifluoromethyl)phthalazin-2(1H)-yl]acetamide]
85% | 1000 to 10000 nM | O=C(Cc1ccccc1)Nn1nc(C(F)(F)F)c2ccccc2c1=O [Example 57, N-[1-oxo-4-(trifluoromethyl)phthalazin-2(1H)-yl]-2-phenylacetamide]
90% | 1000 to 10000 nM | O=C(Cc1ccc(Cl)c(F)c1)Nn1nc(C(F)(F)F)c2ccccc2c1=O [Example 59, 2-(4-chloro-3-fluorophenyl)-N-[1-oxo-4-(trifluoromethyl)phthalazin-2(1H)-yl]acetamide]
214% | < 100 nM | CC(C)c1nn(NC(=O)CC23CC4CC(CC(F)(C4)C2)C3)c(=O)c2ccccc12 [Example 60, 2-(3-fluoroadamantan-1-yl)-N-(4-isopropyl-1-oxophthalazin-2(1H)-yl)acetamide]
